From patent US9938266B2, “Selective BACE1 inhibitors” (Eli Lilly and Company, priority 2015, dated 2018)
Read-outs that look alike come from different tables or passages of the source.

How the values were obtained:
[1] = target: T1, human BACE1(1-460):Fc (Homo sapiens, UniProt P56817); test: BACE1 FRET Assay; assay type: biochemical; details: purified recombinant huBACE1:Fc, n=6, mean±SEM
T1 construct: made in house; host or cells: HEK293 (transient, secreted into conditioned media, Protein A purified)
T1 sequence (P56817 22-460): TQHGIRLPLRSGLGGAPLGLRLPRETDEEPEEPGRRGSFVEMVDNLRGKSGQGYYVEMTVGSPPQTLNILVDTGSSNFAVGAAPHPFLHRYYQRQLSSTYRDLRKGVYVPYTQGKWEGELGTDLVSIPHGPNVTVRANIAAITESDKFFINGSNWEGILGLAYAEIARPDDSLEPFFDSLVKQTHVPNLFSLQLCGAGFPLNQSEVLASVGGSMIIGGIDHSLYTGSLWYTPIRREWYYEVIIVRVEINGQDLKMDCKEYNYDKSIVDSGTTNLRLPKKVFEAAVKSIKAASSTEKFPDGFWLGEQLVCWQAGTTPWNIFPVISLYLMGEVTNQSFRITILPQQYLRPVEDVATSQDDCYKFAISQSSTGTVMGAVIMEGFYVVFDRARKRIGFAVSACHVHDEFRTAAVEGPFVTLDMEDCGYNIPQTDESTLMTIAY
Method: (§1) To assess BACE1 selectivity over BACE2, the test compound is evaluated in FRET-based enzymatic assays using specific substrates for BACE1 and BACE2 as described below. For in vitro enzymatic and cellular assays, the test compound is prepared in DMSO to make up a 10 mM stock solution. The stock solution is serially diluted in DMSO to obtain a ten-point dilution curve with final compound concentrations ranging from 10 μM to 0.05 nM in a 96-well round-bottom plate before conducting the in vitro enzymatic and whole cell assays.
Human BACE1 (accession number: AF190725) and human BACE2 (accession number: AF 204944) are cloned from total brain cDNA by RT-PCR. The nucleotide sequences corresponding to amino acid sequences #1 to 460 are inserted into the cDNA encoding human IgG1 (Fc) polypeptide (Vassar et al., Science, 286, 735-742 (1999)). […]
(§2) Conditioned media of HEK293 cell transiently transfected with huBACE1:Fc or huBACE2:Fc cDNA are collected. […] The purity of final product is assessed by electrophoresis in 4-20% Tris-Glycine SDS-PAGE. […]
Serial dilutions of the test compounds are prepared as described above. […] The RFU of the mixture at time 0 is recorded at excitation wavelength 355 nm and emission wavelength 460 nm, after brief mixing on a plate shaker. […] The RFU at the end of incubation is recorded with the same excitation and emission settings used at time 0. […]

[2] = target: T2, human BACE2 (1-460):Fc (Homo sapiens, UniProt Q9Y5Z0); test: BACE2 TMEM27 FRET Assay; assay type: biochemical
T2 construct: made in house; host or cells: HEK293 (transient, secreted into conditioned media, Protein A purified)
T2 sequence (Q9Y5Z0 21-460): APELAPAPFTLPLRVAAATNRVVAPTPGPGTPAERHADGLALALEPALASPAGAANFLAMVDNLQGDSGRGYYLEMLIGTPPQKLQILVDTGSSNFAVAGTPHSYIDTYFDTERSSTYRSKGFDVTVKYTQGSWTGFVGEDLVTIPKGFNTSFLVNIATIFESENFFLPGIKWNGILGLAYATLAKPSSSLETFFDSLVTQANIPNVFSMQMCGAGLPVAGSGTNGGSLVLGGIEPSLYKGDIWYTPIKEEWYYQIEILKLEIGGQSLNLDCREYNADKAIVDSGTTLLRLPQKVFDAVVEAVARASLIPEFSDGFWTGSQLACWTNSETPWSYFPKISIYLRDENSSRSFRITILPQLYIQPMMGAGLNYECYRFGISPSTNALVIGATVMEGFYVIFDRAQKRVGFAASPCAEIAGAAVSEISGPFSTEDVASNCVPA
Method: as §1
Human BACE1 (accession number: AF190725) and human BACE2 (accession number: AF 204944) are cloned from total brain cDNA by RT-PCR. […]
as §2
Transmembrane protein 27 (TMEM27) (Accession Number NM_020665), also known as Collectrin) is a recently described substrate for BACE2, but not BACE1 (Esterhazy, et al, Cell Metabolism, 14, 365-377 (2011)). […] The RFU of the mixture at time 0 is recorded at excitation wavelength 430 nm and emission wavelength 535 nm. […] The RFU at the end of incubation is recorded with the same excitation and emission settings used at time 0. […]

[3] = target: T3, BACE1 (Homo sapiens, UniProt P56817); test: SH-SY5YAPP695Wt Whole Cell Assay (Abeta ELISA); assay type: cell-based; details: SH-SY5YAPP695Wt cells, 24 hours
T3 construct: endogenous in cells; host or cells: SH-SY5Y (ATCC CRL2266) stably expressing human APP695Wt
T3 sequence (P56817 46-501): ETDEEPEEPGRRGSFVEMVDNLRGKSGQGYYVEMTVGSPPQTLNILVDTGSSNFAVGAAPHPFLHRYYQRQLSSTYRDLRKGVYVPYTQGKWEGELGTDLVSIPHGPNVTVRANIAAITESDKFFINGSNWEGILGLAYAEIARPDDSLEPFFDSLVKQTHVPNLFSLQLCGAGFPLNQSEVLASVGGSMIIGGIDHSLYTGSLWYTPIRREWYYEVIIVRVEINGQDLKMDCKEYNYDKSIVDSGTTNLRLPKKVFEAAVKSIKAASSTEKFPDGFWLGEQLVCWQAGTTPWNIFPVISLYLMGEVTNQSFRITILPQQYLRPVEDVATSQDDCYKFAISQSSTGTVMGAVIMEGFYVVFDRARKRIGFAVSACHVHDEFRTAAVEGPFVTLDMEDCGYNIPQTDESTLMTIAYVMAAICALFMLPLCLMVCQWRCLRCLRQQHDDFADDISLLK
Method: as §1
The routine whole cell assay for the measurement of inhibition of BACE1 activity utilizes the human neuroblastoma cell line SH-SY5Y (ATCC Accession No. CRL2266) stably expressing a human APP695Wt cDNA. Cells are routinely used up to passage number 6 and then discarded.
SH-SY5YAPP695Wt cells are plated in 96 well tissue culture plates at 5.0×10^4 cells/well in 200 μL culture media (50% MEM/EBSS and Ham's F12, 1× each sodium pyruvate, non-essential amino acids and Na bicarbonate containing 10% FBS). The following day, media is removed from the cells, fresh media added then incubated at 37° C. for 24 hours in the presence/absence of test compound at the desired concentration range.
At the end of the incubation, conditioned media are analyzed for evidence of beta-secretase activity by analysis of Abeta peptides 1-40 and 1-42 by specific sandwich ELISAs. […]

[4] = target: T4, beta-secretase (Mus musculus, UniProt P56818); test: In Vivo Inhibition of Beta-Secretase (brain Abeta 1-x, PDAPP mice); details: young female PDAPP mice, three hours, vs vehicle; for Abeta 1-x peptide levels reduced in brain cortex: p<0.01
T4 construct: from tissue; host or cells: brain (hippocampus, cortex) of young female PDAPP mice, in vivo
T4 sequence (P56818 46-501): as the sequence (P56817 46-501) above, with P6S, V162I, L165I, S180T, V182A, I340V, L393A, Q443H counted along it
Description: Several animal models, including mouse, guinea pig, dog, and monkey, may be used to screen for inhibition of beta-secretase activity in vivo following compound treatment. Animals used in this invention can be wild type, transgenic, or gene knockout animals. For example, the PDAPP mouse model, prepared as described in Games et al., Nature 373, 523-527 (1995), and other non-transgenic or gene knockout animals are useful to analyze in vivo inhibition of Abeta and sAPPbeta production in the presence of inhibitory compounds. Generally, 2 month old PDAPP mice, gene knockout mice or non-transgenic animals are administered compound formulated in vehicles, such as corn oil, beta-cyclodextran, phosphate buffers, PHARMASOLVE®, or other suitable vehicles via oral, subcutaneous, intra-venous, feeding, or other route of administration. One to twenty-four hours following the administration of compound, animals are sacrificed, and brains are removed for analysis of Abeta 1-x. “Abeta 1-x” as used herein refers to the sum of Abeta species that begin with residue 1 and end with a C-terminus greater than residue 28. This detects the majority of Abeta species and is often called “total Abeta”. Total Abeta peptides (Abeta 1-x) levels are measured by a sandwich ELISA, using monoclonal 266 as a capture antibody and biotinylated 3D6 as reporting antibody. (See May, et al., Journal of Neuroscience, 31, 16507-16516 (2011)).
For acute studies, compound or appropriate vehicle is administered and animals are sacrificed at about 3 hours after dosing. Brain tissue, is obtained from selected animals and analyzed for the presence of Abeta 1-x. After chronic dosing brain tissues of older APP transgenic animals may also be analyzed for the amount of beta-amyloid plaques following compound treatment.
For Example 1, three hours following a 3, 10, and 30 mg/kg oral dose of the compound to young female PDAPP mice, Abeta 1-x peptide levels are reduced approximately 22%, 42%, and 51% in brain hippocampus and 26%, 43%, and 59% in brain cortex p<0.01, compared to vehicle-treated mice.

IC50 [1]: 0.955 ± 0.093 nM
IC50 ([2]; huBACE2:Fc, TMEM27 FRET substrate, n=4, mean±SEM): 87.3 ± 11.1 nM
ratio of BACE2 IC50 (TMEM27 FRET) to BACE1 IC50 (FRET) ([2]; selectivity for BACE1 over BACE2): about 91 fold
IC50 ([3]; n=3, mean±SEM, read-out: IC50 SH-SY5YAPP695Wt A-beta (1-42) ELISA): 0.43 ± 0.08 nM
IC50 ([3]; n=4, mean±SEM, read-out: IC50 SH-SY5YAPP695Wt A-beta (1-40) ELISA): 0.38 ± 0.14 nM
Abeta 1-x peptide levels reduced in brain hippocampus ([4]; 3 mg/kg oral): approximately 22%
Abeta 1-x peptide levels reduced in brain cortex ([4]; 3 mg/kg oral): ~26%
Abeta 1-x peptide levels reduced in brain hippocampus ([4]; 10 mg/kg oral): ~42%
Abeta 1-x peptide levels reduced in brain cortex ([4]; 10 mg/kg oral): ~43%
Abeta 1-x peptide levels reduced in brain hippocampus ([4]; 30 mg/kg oral): ~51%
Abeta 1-x peptide levels reduced in brain cortex ([4]; 30 mg/kg oral): ~59%
Structure (SMILES): NC1=N[C@@]2(c3cc(NC(=O)c4cnc(-n5cncn5)cn4)ccc3F)C[C@@H](OC3CC3)C[C@H]2CS1 [Example 1, N-[3-[(4aR,6S,7aS)-2-Amino-6-(cyclopropoxy)-4a,5,6,7-tetrahydro-4H-cyclopenta[d][1,3]thiazin-7a-yl]-4-fluoro-phenyl]-5-(1,2,4-triazol-1-yl)pyrazine-2-carboxamide]
